Laboratory results reported in patent publication US20210283198A1, “METHOD FOR TREATING AND/OR PREVENTING COCCIDIOSIS” (priority 2020, published 2021).
Marks after values point to notes of the source that are not given here. *1 amine or outer side, *2 acyl side, *3 side chain or, on linkers, in order; H or OH if unused. Where a SMILES comes first, the peptide text is derived from it. Bridges are numbered along the chain shown (N, C = ends). [ ]: non-standard residue; d: D form. X1 = CC(C)CCCCCCCCC[C@H](CC(=O)[*:1])O[*:2]

Tested on: Eimeria tenella oocyst
Experiment: In vitro sporulation of the coccidia oocyst in 2% K2Cr2O7
Assay type: cell-based
Conditions: 100 ppm, 25° C., 10^4 oocysts/mL, mean ± SD (n = 3)
Method: Intestinal samples from naturally infected broilers were obtained from poultry farms. Un-sporulated oocysts were obtained from the cecal contents of broilers at day 8 post-infection. Oocyst sporulation was conducted in an aqueous solution of 2% potassium dichromate (K2Cr2O7) with or without surfactin standard or the Bacillus licheniformis-fermented product-derived surfactin C-form for 72 h at 25° C. (10^4 oocysts/mL). Sporulated and non-sporulated oocysts were counted and the percentage of sporulation was estimated by counting the number of sporulated oocysts in a total of 100 oocysts by microscopic observation. Second-generation merozoites were collected from ceca at 110 h post-infection from chickens that had been inoculated with 1×10^5 sporulated oocysts per bird. The merozoites (10^4/mL) were treated with or without surfactin standard or the Bacillus licheniformis-fermented product-derived surfactin C-form for 1 h at 37° C. Three groups of merozoites were prepared, including: (1) a control group comprising 10^4/ml merozoites without surfactin; (2) an experimental group comprising 10^4/ml merozoites treated with 100 ppm surfactin standard; and (3) an experimental group comprising 10^4/ml merozoites treated with the 100 ppm Bacillus licheniformis-fermented product-derived surfactin C-form. After incubation, propidium iodide was added to each well and then stained at 37° C. for 30 min in the dark. The stained samples were examined under a confocal laser-scanning microscope (ZEISS LSM800, Jena, Germany). The percentage of death of merozoite was determined by counting the number of dead merozoite in a total of 100 merozoites. The Eimeria sporozoites from vaccine were treated with different surfacitn for 1 h at 37° C. (10^6 sporozoites/mL). The sporozoites were fixed with 2.5% glutaraldehyde in 50 mM potassium phosphate buffer (pH 6.8) overnight at 4° C., and then washed three times with 50 mM potassium phosphate buffer (pH 6.8). Dehydration was performed in different concentrations of ethanol (35-100%) for 10 mM each and the samples were dried in a critical point drier (CPD 030, Bal-Tec AG, Balzers, Liechtenstein). Specimens were coated under vacuum with gold:palladium (60:40) in a sputter coater (Bal-Tec AG, Balzers, Liechtenstein), and examined using a scanning electron microscope (JSM-6300, JEOL Ltd., Tokyo, JAPAN). […]

With `CC(C)CCCCCCCCC[C@@H]1CC(=O)N[C@@H](CCC(=O)O)C(=O)N[C@@H](CC(C)C)C(=O)N[C@H](CC(C)C)C(=O)N[C@@H](C(C)C)C(=O)N[C@@H](CC(=O)O)C(=O)N[C@H](CC(C)C)C(=O)N[C@@H](CC(C)C)C(=O)O1` [surfactin standard, surfactin] (EL[dL]VD[dL]L; linker N-C via X1) the “Sporulation of the coccidia oocyst (%)” value (12 h) was 0%, the “Sporulation of the coccidia oocyst (%)” value (24 h) was 0% and the “Sporulation of the coccidia oocyst (%)” value (48 h) was 0^b %. For the same compound, the “Sporulation of the coccidia oocyst (%)” value (72 h) was 0^b %.
